Results on 45 molecules are retold here after patent EP0595557A1, “New substituted azetidinones as anti-inflammatory and antidegenerative agents” (MERCK & CO. INC., priority 1992, dated 1994).

The target of this test is T1, Human Polymorphonuclear Leukocyte Elastase (Homo sapiens, UniProt P08246).
T1 construct: Crude extract of human polymorphonuclear leukocytes (PMN) containing elastase activity; from tissue; host or cells: human polymorphonuclear leukocytes (crude extract)
T1 sequence (P08246 30-267): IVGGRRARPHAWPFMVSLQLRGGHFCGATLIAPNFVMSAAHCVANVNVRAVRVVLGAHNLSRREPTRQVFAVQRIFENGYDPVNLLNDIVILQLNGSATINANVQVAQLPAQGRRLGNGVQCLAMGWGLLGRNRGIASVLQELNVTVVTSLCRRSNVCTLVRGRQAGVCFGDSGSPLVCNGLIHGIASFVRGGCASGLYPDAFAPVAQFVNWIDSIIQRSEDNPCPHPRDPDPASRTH
The experiment in a line: Enzyme assay for inhibition of human polymorphonuclear leukocyte elastase via hydrolysis of Boc-AAPAN or Boc-AAPVN. It is filed as biochemical. The note with it: pH 7.5, second order rate constant for inactivation of the enzyme, expressed to the nearest thousand, read-out: Kobs/[I]. The protocol: Enzyme Assays for the Inhibition of Human Polymorphonuclear Leukocyte Elastase Via Hydrolysis of N-t-Boc-alanyl-alanyl-prolylalanine-p-nitroanilide (Boc-AAPAN) or N-t-Boc-alanyl-prolylvaline-p-nitro-anilide (Boc-AAPVN) Reagent:
0.05M TES (N-tris[hydroxymethyl]methyl-2-mino-ethanesulfonic acid) Buffer, pH 7.5.
0.2 mM Boc-AAPAN or Boc-AAPVN.
To prepare substrate, the solid was first dissolved in 10.0 ml DMSO. Buffer at pH 7.5 was then added to a final volume of 100 ml.
Crude extract of human polymorphonuclear leukocytes (PMN) containing elastase activity.
Inhibitors (azetidinones) to be tested dissolved in DMSO just before use.
To 1.0 ml of 0.2 mM Boc-AAPAN in a cuvette, 0.01-0.1 ml of DMSO with or without inhibitor was added. After mixing, a measurement was taken at 410 mµ to detect any spontaneous hydrolysis due to presence of test compound. 0.05 Milliliters of PMN extract was then added and the ΔOD/min at 410 mµ was measured and recorded. Beckman model 35 spectrophotometer was used.
Results were expressed to the nearest thousand ^kobs/I which is the second order rate constant in per mole per second for inactivation of the enzyme.
The elastase activity in the crude PMN extract may vary from one preparation to another. A control of each new batch is run, and the volume added in the assay procedure is adjusted according to activity.

In the case of `CCC[C@@H](NC(=O)N1C(=O)C(CC)(CC)[C@@H]1Oc1ccc(C(=O)OCCN(C)Cc2ccccc2)cc1)c1ccc(C)cc1` [Compound 31, 2-[methyl(phenylmethyl)amino]ethyl [S-(R*,S*)]-4-[[3,3-diethyl-1-[[[1-(4-methyl-phenyl)butyl]amino]carbonyl]-4-oxo-2-azetidinyl]oxy]benzoate], the kinact/KI stood at 1.18e+06 M⁻¹ s⁻¹.

On to `CCC[C@@H](NC(=O)N1C(=O)C(CC)(CC)[C@@H]1Oc1ccc(CC(=O)OCCN(C)C)cc1)c1ccc(C)cc1` [Compound 32], for which the kinact/KI turned out to be 1.99e+06 M⁻¹ s⁻¹. On to `CCC[C@@H](NC(=O)N1C(=O)C(CC)(CC)[C@@H]1Oc1ccc(CC(=O)OCCCN(C)C)cc1)c1ccc(C)cc1` [Compound 33], for which the kinact/KI was determined as 1.15e+06 M⁻¹ s⁻¹. On to `CCC[C@@H](NC(=O)N1C(=O)C(CC)(CC)[C@@H]1Oc1ccc(CC(=O)OCCN(CC)CC)cc1)c1ccc(C)cc1` [Compound 34], for which the kinact/KI turned out to be 1.34e+06 M⁻¹ s⁻¹.

As for `CCC[C@@H](NC(=O)N1C(=O)C(CC)(CC)[C@@H]1Oc1ccc(CC(=O)OCCN2CCOCC2)cc1)c1ccc(C)cc1` [Compound 35], the kinact/KI was 1.72e+06 M⁻¹ s⁻¹. Under `CCC[C@@H](NC(=O)N1C(=O)C(CC)(CC)[C@@H]1Oc1ccc(CC(=O)OC(C)CN(C)C)cc1)c1ccc(C)cc1` (stereo partly drawn) [Compound 36] stands 1.69e+06 M⁻¹ s⁻¹; under `CCC[C@@H](NC(=O)N1C(=O)C(CC)(CC)[C@@H]1Oc1ccc(CC(=O)OCC(C)(C)N(C)C)cc1)c1ccc(C)cc1` [Compound 37], 2.1e+06 M⁻¹ s⁻¹; under `CCC[C@@H](NC(=O)N1C(=O)C(CC)(CC)[C@@H]1Oc1ccc(CC(=O)OCC(=O)O)cc1)c1ccc(C)cc1` [Compound 38], 1.01e+06 M⁻¹ s⁻¹. With `CCC[C@@H](NC(=O)N1C(=O)C(CC)(CC)[C@@H]1Oc1ccc(CC(=O)OCCN(C)Cc2ccccc2)cc1)c1ccc(C)cc1` [Compound 39] the figure was 751000 M⁻¹ s⁻¹; with `CCC[C@@H](NC(=O)N1C(=O)C(CC)(CC)[C@@H]1Oc1ccc(CC(=O)N(CCO)CCO)cc1)c1ccc(C)cc1` [Compound 40], 1.24e+06 M⁻¹ s⁻¹; with `CCC[C@@H](NC(=O)N1C(=O)C(CC)(CC)[C@@H]1Oc1ccc(CC(=O)N2CCN(C)CC2)cc1)c1ccc(C)cc1` [Compound 41], 974000 M⁻¹ s⁻¹. With `CCC[C@@H](NC(=O)N1C(=O)C(CC)(CC)[C@@H]1Oc1ccc(CC(=O)N2CCOCC2)cc1)c1ccc(C)cc1` [Compound 42] the figure was 1.09e+06 M⁻¹ s⁻¹; with `CCC[C@@H](NC(=O)N1C(=O)C(CC)(CC)[C@@H]1Oc1ccc(CC(=O)NCCN(C)C)cc1)c1ccc(C)cc1` [Compound 43], 1.21e+06 M⁻¹ s⁻¹.

For `CCC[C@@H](NC(=O)N1C(=O)C(CC)(CC)[C@@H]1Oc1ccc(CC(=O)N(C)CCN(C)C)cc1)c1ccc(C)cc1` [Compound 44], the kinact/KI amounted to 1.24e+06 M⁻¹ s⁻¹. Under `CCC[C@@H](NC(=O)N1C(=O)C(CC)(CC)[C@@H]1Oc1ccc(CC(=O)NCCCN(C)C)cc1)c1ccc(C)cc1` [Compound 45] stands 1.12e+06 M⁻¹ s⁻¹; under `CCC[C@@H](NC(=O)N1C(=O)C(CC)(CC)[C@@H]1Oc1ccc(CC(=O)NCCc2ccncc2)cc1)c1ccc(C)cc1` [Compound 46], 2.25e+06 M⁻¹ s⁻¹.

For `CCC[C@@H](NC(=O)N1C(=O)C(CC)(CC)[C@@H]1Oc1ccc(CC(=O)NCC(=O)O)cc1)c1ccc(C)cc1` [Compound 47], the kinact/KI is 876000 M⁻¹ s⁻¹.

As for `CCC[C@@H](NC(=O)N1C(=O)C(CC)(CC)[C@@H]1Oc1ccc(CC(=O)NC(C)C(=O)O)cc1)c1ccc(C)cc1` (stereo partly drawn) [Compound 48], the kinact/KI turned out to be 676000 M⁻¹ s⁻¹. With `CCC[C@@H](NC(=O)N1C(=O)C(CC)(CC)[C@@H]1Oc1ccc(CC(=O)NCC(=O)N(CCO)CCO)cc1)c1ccc(C)cc1` [Compound 49] the figure was 1.3e+06 M⁻¹ s⁻¹; with `CCC[C@@H](NC(=O)N1C(=O)C(CC)(CC)[C@@H]1Oc1ccc(CC(=O)N(C)CC(=O)O)cc1)c1ccc(C)cc1` [Compound 50], 989000 M⁻¹ s⁻¹. Under `CCC[C@@H](NC(=O)N1C(=O)C(CC)(CC)[C@@H]1Oc1ccc(CC(=O)NC(C)C(=O)N(CCO)CCO)cc1)c1ccc(C)cc1` (stereo partly drawn) [Compound 51] stands 939000 M⁻¹ s⁻¹. Under `CCC[C@@H](NC(=O)N1C(=O)C(CC)(CC)[C@@H]1Oc1ccc(CC(=O)N(C)CC(=O)N(CCO)CCO)cc1)c1ccc(C)cc1` [Compound 52] stands 273000 M⁻¹ s⁻¹. On to `CCC[C@@H](NC(=O)N1C(=O)C(CC)(CC)[C@@H]1Oc1ccc(CC(=O)N(C)CCN2CCOCC2)cc1)c1ccc(C)cc1` [Compound 53], for which the kinact/KI is 2.51e+06 M⁻¹ s⁻¹. On to `CCC[C@@H](NC(=O)N1C(=O)C(CC)(CC)[C@@H]1Oc1ccc(CC(=O)N(C)CCN(CCOC)CCOC)cc1)c1ccc(C)cc1` [Compound 54], for which the kinact/KI was found to be 1.39e+06 M⁻¹ s⁻¹. Regarding `CCC[C@@H](NC(=O)N1C(=O)C(CC)(CC)[C@@H]1Oc1ccc(CC(=O)N(C)CCN(CC)CC)cc1)c1ccc(C)cc1` [Compound 55], the kinact/KI was found to be 1.32e+06 M⁻¹ s⁻¹. Under `CCC[C@@H](NC(=O)N1C(=O)C(CC)(CC)[C@@H]1Oc1ccc(CC(=O)N(C)CCCN(C)C)cc1)c1ccc(C)cc1` [Compound 56] stands 1.05e+06 M⁻¹ s⁻¹. With `CCC[C@@H](NC(=O)N1C(=O)C(CC)(CC)[C@@H]1Oc1ccc(CC(=O)NCC(C)N(C)C)cc1)c1ccc(C)cc1` (stereo partly drawn) [Compound 57] the figure was 1.34e+06 M⁻¹ s⁻¹.

Regarding `CCC[C@@H](NC(=O)N1C(=O)C(CC)(CC)[C@@H]1Oc1ccc(CC(=O)N(C)CCN(C(C)C)C(C)C)cc1)c1ccc(C)cc1` [Compound 58], the kinact/KI came out at 1.63e+06 M⁻¹ s⁻¹.

With `CCC[C@@H](NC(=O)N1C(=O)C(CC)(CC)[C@@H]1Oc1ccc(CC(=O)N(CCC)CCC)cc1)c1ccc(C)cc1` [Compound 59], the kinact/KI stood at 1.14e+06 M⁻¹ s⁻¹. Under `CCC[C@@H](NC(=O)N1C(=O)C(CC)(CC)[C@@H]1Oc1ccc(CC(=O)N(CC)CC)cc1)c1ccc(C)cc1` [Compound 60] stands 1.08e+06 M⁻¹ s⁻¹; under `CCC[C@@H](NC(=O)N1C(=O)C(CC)(CC)[C@@H]1Oc1ccc(CC(=O)Nc2cccc(Cl)c2)cc1)c1ccc(C)cc1` [Compound 61], 733000 M⁻¹ s⁻¹; under `CCC[C@@H](NC(=O)N1C(=O)C(CC)(CC)[C@@H]1Oc1ccc(CC(=O)Nc2cccc(OC)c2)cc1)c1ccc(C)cc1` [Compound 62], 1.62e+06 M⁻¹ s⁻¹. With `CCC[C@@H](NC(=O)N1C(=O)C(CC)(CC)[C@@H]1Oc1ccc(CC(=O)N(C)CCCC(=O)O)cc1)c1ccc(C)cc1` [Compound 64] the figure was 917000 M⁻¹ s⁻¹; with `CCC[C@@H](NC(=O)N1C(=O)C(CC)(CC)[C@@H]1Oc1ccc(CC(=O)N(C)CCCC(=O)NS(=O)(=O)c2ccccc2)cc1)c1ccc(C)cc1` [Compound 65], 1.34e+06 M⁻¹ s⁻¹; with `CCC[C@@H](NC(=O)N1C(=O)C(CC)(CC)[C@@H]1Oc1ccc(CC(=O)N(C)CCCN(C)Cc2ccccc2)cc1)c1ccc(C)cc1` [Compound 66], 1.36e+06 M⁻¹ s⁻¹. For `CCC[C@@H](NC(=O)N1C(=O)C(CC)(CC)[C@@H]1Oc1ccc(CC(=O)N(C)C)cc1)c1ccc(C)cc1` [Compound 67], the kinact/KI worked out at 942000 M⁻¹ s⁻¹. With `CCC[C@@H](NC(=O)N1C(=O)C(CC)(CC)[C@@H]1Oc1ccc(CC(=O)N(C)Cc2ccccc2)cc1)c1ccc(C)cc1` [Compound 68] the figure was 1.9e+06 M⁻¹ s⁻¹. With `CCC[C@@H](NC(=O)N1C(=O)C(CC)(CC)[C@@H]1Oc1ccc(CC(=O)N(C)CCN(C)Cc2ccccc2)cc1)c1ccc(C)cc1` [Compound 69] the figure was 2.79e+06 M⁻¹ s⁻¹; with `CCC[C@@H](NC(=O)N1C(=O)C(CC)(CC)[C@@H]1Oc1ccc(CC(=O)NOCc2ccccc2)cc1)c1ccc(C)cc1` [Compound 70], 2.37e+06 M⁻¹ s⁻¹. Take `CCC[C@@H](NC(=O)N1C(=O)C(CC)(CC)[C@@H]1Oc1ccc(CC(=O)N(C)c2ccc(C(=O)O)cc2)cc1)c1ccc(C)cc1` [Compound 71]: the kinact/KI was 1.51e+06 M⁻¹ s⁻¹. Consider `CCC[C@@H](NC(=O)N1C(=O)C(CC)(CC)[C@@H]1Oc1ccc(CC(=O)N(C)c2ccc(C(=O)NS(=O)(=O)c3ccccc3)cc2)cc1)c1ccc(C)cc1` [Compound 72], for which the kinact/KI was 3.28e+06 M⁻¹ s⁻¹.

`CCCC(NC(=O)N1C(=O)C(CC)(CC)C1Oc1ccc(C(=O)NCCN(C)C)cc1)c1ccc(C)cc1` (stereo not drawn) [Compound 73, 2-[4-[[[2-(dimethylamino)ethyl]amino]carbonyl]phenoxy]-3,3-diethyl-N-[1-(4-methylphenyl)butyl]-4-oxo-1-azetidinecarboxamide]: the kinact/KI amounted to 968000 M⁻¹ s⁻¹. With `CCC[C@@H](NC(=O)N1C(=O)C(CC)(CC)[C@@H]1Oc1ccc(C(=O)NCC(=O)O)cc1)c1ccc(C)cc1` [Compound 74] the figure was 1.43e+06 M⁻¹ s⁻¹. With `CCC[C@@H](NC(=O)N1C(=O)C(CC)(CC)[C@@H]1Oc1ccc(C(=O)N(C)CCN(C)C)cc1)c1ccc(C)cc1` [Compound 75, [S-(R*,S*)]-2-[4-[[[2-(dimethylamino)ethyl]methylamino]carbonyl]phenoxy]-3,3-diethyl-N-[1-(4-methylphenyl]butyl]-4-oxo-1-azetidinecarboxamide] the figure was 1.92e+06 M⁻¹ s⁻¹. On to `CCC[C@@H](NC(=O)N1C(=O)C(CC)(CC)[C@@H]1Oc1ccc(C(=O)N(CC)CCN(C)C)cc1)c1ccc(C)cc1` [Compound 76], for which the kinact/KI is 1.44e+06 M⁻¹ s⁻¹.
